Data from patent publication US10730865B2, “Compounds for modulating aquaporins” (APOGLYX AB, priority 2016, dated 2020).

These compounds were tested against human aquaporin 9 (Homo sapiens (Human), UniProt O43315) (assay: Calcein quenching fluostar assay (inhibition of human aquaporin 9)). Details: Human AQP9 cell line; example compounds used as 1 mM stock solutions in DMSO.
Assay type: cell-based
Protocol: Calcein Quenching Fluostar Assay
A calcein quenching fluostar assay was performed in order to investigate the biological activity of the newly synthesized examples 1 to 57. This type of assay is disclosed in J. Biol. Chem., 2011, 286, 44319-44325 and Am. J. Physiol. Renal Physiol. (2010), 298, F224-230.
1) Two days prior to commencement of the assay, seed 10,000 cells/well of 96 well black clear bottom plate (Greiner Poly-lysin plate). A 1:1 mix of Dulbecco's Modified Eagle's Medium: Nutrient Mixture F-12 (DMEM: F12) was obtained from Gibco. Tetracycline stock of 5 mg/ml in 96% ethanol is used. Medium: DMEM/F12/10% Donor Bovine Serum, Human AQP9 cell line+1:270,000 tetracyclin, mouse AQP9 cell line+1:2,700,000 tetracycline.
2) Day of assay: Flick/slam off the medium and add 50 μl/well of loading solution: 5 ml DMEM/F12/10% Donor Bovine Serum, 25 μl Calcein AM—from freshly dissolved aliquot in 50 μl DMSO (VWR #734-1434), and 100 μl Probenecid.
3) Incubate the well for 90 minutes at 37° C.
4) Perform one wash with 75 μl wash buffer.
5) Add 75 μl of an example compound prepared in wash buffer per well.
Example compounds are prepared in 500 μl U bottom PP plates (NUNC). 2.7 μl Substance in DMSO are added to row A; 180 μl of wash buffer+1% DMSO are added to rows B—H. 90 μl from row A are transferred and mixed with all other wells (up to row G) to make a 3-fold dilution series.
6) Assay in FLUOstar Optima at 25° C. Settings buffer addition at 135 μl/seconds, add 75 μl/well, record time course for 30 seconds, add sucrose buffer 3.6 seconds into recording.
7) Normalization to initial in Excel.
8) Fit to “exponential decay” function in GraphPad Prism 5.0, then arrange half live shrinking values according to wells and fit dose-response curves.

human aquaporin 9, sequence (O43315 whole entry): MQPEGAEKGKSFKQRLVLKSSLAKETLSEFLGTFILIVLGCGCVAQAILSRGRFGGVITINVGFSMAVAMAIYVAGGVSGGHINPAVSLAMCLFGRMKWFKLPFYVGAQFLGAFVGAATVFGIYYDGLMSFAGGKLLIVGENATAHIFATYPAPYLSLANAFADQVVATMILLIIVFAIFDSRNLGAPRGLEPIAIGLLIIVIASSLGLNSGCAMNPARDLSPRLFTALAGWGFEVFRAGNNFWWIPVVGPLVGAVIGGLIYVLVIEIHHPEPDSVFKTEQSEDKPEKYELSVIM

In order of rising EC50:
1. CCc1nnc(SCC(=O)Nc2nnc(-c3ccc(OCCOC)cc3)s2)n1CC [Example 30, 2-[(diethyl-4H-1,2,4-triazol-3-yl)sulfanyl]-N-{5-[4-(2-methoxyethoxy)phenyl]-1,3,4-thiadiazol-2-yl}acetamide]  21 nM
2. CCn1c(SCC(=O)Nc2nnc(-c3ccc(OCCOC)cc3)s2)nnc1C(C)C [Example 31, 2-{[4-ethyl-5-(propan-2-yl)-4H-1,2,4-triazol-3-yl]sulfanyl}-N-{5-[4-(2-methoxyethoxy)phenyl]-1,3,4-thiadiazol-2-yl}acetamide]  37 nM
3. CCCc1ccc(-c2nnc(NC(=O)CSc3nnc(CCOC)n3CC)s2)cc1 [Example 24, 2-{[4-ethyl-5-(2-methoxyethyl)-4H-1,2,4-triazol-3-yl]sulfanyl}-N-[5-(4-propylphenyl)-1,3,4-thiadiazol-2-yl]acetamide]  41 nM
4. CCOc1ccc(-c2nnc(NC(=O)CSc3nnc(CC)n3CC)s2)cc1 [Example 25, 2-[(diethyl-4H-1,2,4-triazol-3-yl)sulfanyl]-N-[5-(4-ethoxyphenyl)-1,3,4-thiadiazol-2-yl]acetamide]  42 nM
5. CCc1nnc(SCC(=O)Nc2nnc(-c3ccc(C#N)cc3)s2)n1CC [Example 32, N-[5-(4-cyanophenyl)-1,3,4-thiadiazol-2-yl]-2-[(4,5-diethyl-4H-1,2,4-triazol-3-yl)sulfanyl]acetamide]  43 nM
6. CCc1nnc(SCC(=O)Nc2nnc(-c3ccc(OCCF)cc3)s2)n1CC [Example 26, 2-[(diethyl-4H-1,2,4-triazol-3-yl)sulfanyl]-N-{5-[4-(2-fluoroethoxy)phenyl]-1,3,4-thiadiazol-2-yl}acetamide]  43 nM
7. CCn1c(SCC(=O)Nc2nnc(-c3ccc(OCCF)cc3)s2)nnc1C(C)C [Example 28, 2-{[4-ethyl-5-(propan-2-yl)-4H-1,2,4-triazol-3-yl]sulfanyl}-N-{5-[4-(2-fluoroethoxy)phenyl]-1,3,4-thiadiazol-2-yl}acetamide]  44 nM
8. CCc1nnc(SCC(=O)Nc2nnc(-c3ccc(OC)cc3)s2)n1C1CC1 [Example 36, 2-[(4-cyclopropyl-5-ethyl-4H-1,2,4-triazol-3-yl)sulfanyl]-N-[5-(4-methoxyphenyl)-1,3,4-thiadiazol-2-yl]acetamide]  51 nM
9. CCn1c(SCC(=O)Nc2nnc(-c3ccc(OCCOC)cc3)s2)nnc1C1CC1 [Example 43, 2-[(5-cyclopropyl-4-ethyl-4H-1,2,4-triazol-3-yl)sulfanyl]-N-[5-(4-(2-methoxyethoxy)phenyl)-1,3,4-thiadiazol-2-yl]acetamide]  52 nM
10. CCc1nnc(SCC(=O)Nc2nnc(-c3ccc(S(C)(=O)=O)cc3)s2)n1CC [Example 8, 2-[(diethyl-4H-1,2,4-triazol-3-yl)sulfanyl]-N-[5-(4-methanesulfonylphenyl)-1,3,4-thiadiazol-2-yl]acetamide]  66 nM
11. CCc1nnc(SCC(=O)Nc2nnc(-c3ccc(S(C)(=O)=O)cc3)s2)n1C(C)C [Example 42, 2-[(5-ethyl-4-isopropyl-4H-1,2,4-triazol-3-yl)sulfanyl]-N-[5-(4-(methylsulfonyl)phenyl)-1,3,4-thiadiazol-2-yl]acetamide]  76 nM
12. CCc1nnc(SCC(=O)Nc2nnc(-c3ccc(C(C)C)cc3)s2)n1CC [Example 20, 2-[(diethyl-4H-1,2,4-triazol-3-yl)sulfanyl]-N-{5-[4-(propan-2-yl)phenyl]-1,3,4-thiadiazol-2-yl}acetamide]  79 nM
13. CCn1c(SCC(=O)Nc2nnc(-c3ccc(O)cc3)s2)nnc1C1CC1 [Example 38, 2-[(5-cyclopropyl-4-ethyl-4H-1,2,4-triazol-3-yl)sulfanyl]-N-[5-(4-hydroxyphenyl)-1,3,4-thiadiazol-2-yl]acetamide]  81 nM
14. CCn1c(SCC(=O)Nc2ccc(-c3ccc(OC)cc3)nn2)nnc1-c1ccc(F)cc1 [Example 9, 2-{[4-ethyl-5-(4-fluorophenyl)-4H-1,2,4-triazol-3-yl]sulfanyl}-N-[6-(4-methoxyphenyl)pyridazin-3-yl]acetamide]  87 nM
15. CCn1c(SCC(=O)Nc2nnc(-c3ccc(OC(C)C)cc3)s2)nnc1C(C)C [Example 29, 2-{[4-ethyl-5-(propan-2-yl)-4H-1,2,4-triazol-3-yl]sulfanyl}-N-{5-[4-(propan-2-yloxy)phenyl]-1,3,4-thiadiazol-2-yl}acetamide]  90 nM
16. CCc1nnc(SCC(=O)Nc2nnc(-c3ccc(OCC(C)C)cc3)s2)n1CC [Example 13, 2-[(diethyl-4H-1,2,4-triazol-3-yl)sulfanyl]-N-{5-[4-(2-methylpropoxy)phenyl]-1,3,4-thiadiazol-2-yl}acetamide]  101 nM
17. CCc1nnc(SCC(=O)Nc2nnc(-c3ccc(OC)cc3)s2)n1C [Example 10, 2-[(5-ethyl-4-methyl-4H-1,2,4-triazol-3-yl)sulfanyl]-N-[5-(4-methoxyphenyl)-1,3,4-thiadiazol-2-yl]acetamide]  101 nM
18. CCn1c(SCC(=O)Nc2nnc(-c3ccc(S(C)(=O)=O)cc3)s2)nnc1C1CC1 [Example 7, 2-[(5-cyclopropyl-4-ethyl-4H-1,2,4-triazol-3-yl)sulfanyl]-N-[5-(4-methanesulfonylphenyl)-1,3,4-thiadiazol-2-yl]acetamide]  105 nM
19. CCc1nnc(SCC(=O)Nc2nnc(-c3ccc(S(C)(=O)=O)cc3)s2)n1C1CC1 [Example 39, 2-[(4-cyclopropyl-5-ethyl-4H-1,2,4-triazol-3-yl)sulfanyl]-N-[5-(4-(methylsulfonyl)phenyl)-1,3,4-thiadiazol-2-yl]acetamide]  135 nM
20. CCCCc1ccc(-c2nnc(NC(=O)CSc3nnc(CC)n3CC)s2)cc1 [Example 16, 2-[(diethyl-4H-1,2,4-triazol-3-yl)sulfanyl]-N-[5-(4-butylphenyl)-1,3,4-thiadiazol-2-yl]acetamide]  179 nM
21. CCn1c(CN2CCOCC2)nnc1SCC(=O)Nc1nnc(-c2ccc(OC)cc2)s1 [Example 48, 2-{[4-ethyl-5-(morpholin-4-ylmethyl)-4H-1,2,4-triazol-3-yl]sulfanyl}-N-[5-(4-methoxyphenyl)-1,3,4-thiadiazol-2-yl]acetamide]  230 nM
22. CCn1c(CCOC)nnc1SCC(=O)Nc1nnc(-c2ccccc2)s1 [Example 22, 2-{[4-ethyl-5-(2-methoxyethyl)-4H-1,2,4-triazol-3-yl]sulfanyl}-N-(5-phenyl-1,3,4-thiadiazol-2-yl)acetamide]  249 nM
23. COc1ccc(-c2nnc(NC(=O)CSc3nnc(C)n3-c3ccccc3)s2)cc1 [Example 11, N-[5-(4-methoxyphenyl)-1,3,4-thiadiazol-2-yl]-2-[(5-methyl-4-phenyl-4H-1,2,4-triazol-3-yl)sulfanyl]acetamide]  394 nM
24. CCc1nnc(SCC(=O)Nc2nnc(-c3ccc(S(C)(=O)=O)cc3)s2)n1C [Example 41, 2-[(5-ethyl-4-methyl-4H-1,2,4-triazol-3-yl)sulfanyl]-N-[5-(4-(methylsulfonyl)phenyl)-1,3,4-thiadiazol-2-yl]acetamide]  490 nM

In order of rising pEC50 in the inhibition of human aquaporin 9:
1. CCc1nnc(SCC(=O)Nc2nnc(-c3ccc(S(C)(=O)=O)cc3)s2)n1C [Example 41, 2-[(5-ethyl-4-methyl-4H-1,2,4-triazol-3-yl)sulfanyl]-N-[5-(4-(methylsulfonyl)phenyl)-1,3,4-thiadiazol-2-yl]acetamide]  6.3
2. COc1ccc(-c2nnc(NC(=O)CSc3nnc(C)n3-c3ccccc3)s2)cc1 [Example 11, N-[5-(4-methoxyphenyl)-1,3,4-thiadiazol-2-yl]-2-[(5-methyl-4-phenyl-4H-1,2,4-triazol-3-yl)sulfanyl]acetamide]  6.4
3. CCc1nnc(SCC(=O)Nc2nnc(-c3ccc(OCC(C)C)cc3)s2)n1CC [Example 13, 2-[(diethyl-4H-1,2,4-triazol-3-yl)sulfanyl]-N-{5-[4-(2-methylpropoxy)phenyl]-1,3,4-thiadiazol-2-yl}acetamide]  7
4. CCc1nnc(SCC(=O)Nc2nnc(-c3ccc(OC)cc3)s2)n1C [Example 10, 2-[(5-ethyl-4-methyl-4H-1,2,4-triazol-3-yl)sulfanyl]-N-[5-(4-methoxyphenyl)-1,3,4-thiadiazol-2-yl]acetamide]  7
5. CCn1c(SCC(=O)Nc2nnc(-c3ccc(S(C)(=O)=O)cc3)s2)nnc1C1CC1 [Example 7, 2-[(5-cyclopropyl-4-ethyl-4H-1,2,4-triazol-3-yl)sulfanyl]-N-[5-(4-methanesulfonylphenyl)-1,3,4-thiadiazol-2-yl]acetamide]  7
6. CCc1nnc(SCC(=O)Nc2nnc(-c3ccc(S(C)(=O)=O)cc3)s2)n1C(C)C [Example 42, 2-[(5-ethyl-4-isopropyl-4H-1,2,4-triazol-3-yl)sulfanyl]-N-[5-(4-(methylsulfonyl)phenyl)-1,3,4-thiadiazol-2-yl]acetamide]  7.1
7. CCc1nnc(SCC(=O)Nc2nnc(-c3ccc(C(C)C)cc3)s2)n1CC [Example 20, 2-[(diethyl-4H-1,2,4-triazol-3-yl)sulfanyl]-N-{5-[4-(propan-2-yl)phenyl]-1,3,4-thiadiazol-2-yl}acetamide]  7.1
8. CCn1c(SCC(=O)Nc2nnc(-c3ccc(O)cc3)s2)nnc1C1CC1 [Example 38, 2-[(5-cyclopropyl-4-ethyl-4H-1,2,4-triazol-3-yl)sulfanyl]-N-[5-(4-hydroxyphenyl)-1,3,4-thiadiazol-2-yl]acetamide]  7.1
9. CCc1nnc(SCC(=O)Nc2nnc(-c3ccc(S(C)(=O)=O)cc3)s2)n1CC [Example 8, 2-[(diethyl-4H-1,2,4-triazol-3-yl)sulfanyl]-N-[5-(4-methanesulfonylphenyl)-1,3,4-thiadiazol-2-yl]acetamide]  7.2
10. CCc1nnc(SCC(=O)Nc2nnc(-c3ccc(OC)cc3)s2)n1C1CC1 [Example 36, 2-[(4-cyclopropyl-5-ethyl-4H-1,2,4-triazol-3-yl)sulfanyl]-N-[5-(4-methoxyphenyl)-1,3,4-thiadiazol-2-yl]acetamide]  7.3
11. CCCc1ccc(-c2nnc(NC(=O)CSc3nnc(CCOC)n3CC)s2)cc1 [Example 24, 2-{[4-ethyl-5-(2-methoxyethyl)-4H-1,2,4-triazol-3-yl]sulfanyl}-N-[5-(4-propylphenyl)-1,3,4-thiadiazol-2-yl]acetamide]  7.4
